Measurements published in patent US20230159546A1, “NOVEL SPIROPYRROLIDINE DERIVED ANTIVIRAL AGENTS” (Enanta Pharmaceuticals, Inc., priority 2021, published 2023).

Each compound was assayed against SARS-CoV-2 3CL-protease (Severe acute respiratory syndrome coronavirus 2, UniProt P0DTD1) (assay: SARS-CoV-2 3C-like (3CL) protease fluorescence assay (FRET)). Details: not given.
Assay type: biochemical
Work on `CCOC(=O)N1C[C@]2(C[C@H]1C#N)C(=O)Nc1ccccc12` [Example 67] yielded an IC50 greater than 1000 nM. Work on `N#C[C@@H]1C[C@@]2(CN1C(=O)Oc1ccccc1)C(=O)Nc1ccccc12` [Example 71] yielded an IC50 greater than 1000 nM.

Same assay, conditions: recombinant SARS-CoV-2 3CL-protease 10 nM, 30 min preincubation at RT, duplicate; read-out: FRET IC50
For `N#C[C@@H]1C[C@@]2(CN1NC(=O)c1ccccc1)C(=O)Nc1ccccc12` [Example 142], the IC50 was greater than 1000 nM. In the case of `N#C[C@@H]1C[C@@]2(CN1S(=O)(=O)NC1CCC1)C(=O)Nc1ccccc12` [Example 59], the IC50 is reported as greater than 1000 nM. Work on `CCCCCCNC(=O)C(=O)N1C[C@]2(C[C@H]1C#N)C(=O)Nc1ccccc12` [Example 156] yielded an IC50 of 100 to 1000 nM. With `N#C[C@@H]1C[C@@]2(CN1C(=O)CC(=O)N[C@H]1CCC[C@H]1O)C(=O)Nc1ccccc12` [Example 173] the IC50 was greater than 1000 nM. With `N#C[C@@H]1C[C@@]2(CN1S(=O)(=O)NC1CCCC1)C(=O)Nc1ccccc12` [Example 60] the IC50 was greater than 1000 nM. Compound `N#C[C@@H]1C[C@@]2(CN1C(=O)[C@H](Cc1ccccc1)C(=O)NC1CCCCC1)C(=O)Nc1ccccc12` [Example 118] has an IC50 of 100 to 1000 nM. For `N#C[C@@H]1C[C@@]2(CN1C(=O)C(=O)NCc1nccs1)C(=O)Nc1ccccc12` [Example 81], the IC50 was greater than 1000 nM. Compound `N#C[C@@H]1C[C@@]2(CN1C(=O)C(=O)OC1CC1)C(=O)Nc1ccccc12` [Example 125] has an IC50 greater than 1000 nM. With `N#C[C@@H]1C[C@@]2(CN1NC(=O)C1CC1)C(=O)Nc1ccccc12` [Example 140] the IC50 was greater than 1000 nM. In the case of `CCOC(=O)C(=O)N1C[C@]2(C[C@H]1C#N)C(=O)Nc1ccccc12` [Example 123], the IC50 is reported as greater than 1000 nM. `Cc1cccc(NC(=O)C(=O)N2C[C@]3(C[C@H]2C#N)C(=O)Nc2ccccc23)n1` [Example 168] was tested, and the IC50 was greater than 1000 nM. Work on `N#C[C@@H]1C[C@@]2(CN1C(=O)C1(C(=O)Nc3ccccc3)CC1)C(=O)Nc1ccccc12` [Example 75] yielded an IC50 greater than 1000 nM. `N#C[C@@H]1C[C@@]2(CN1C(=O)C(=O)NC1CCCC1)C(=O)Nc1ccccc12` [Example 90] gave an IC50 of 100 to 1000 nM. For `N#C[C@@H]1C[C@@]2(CN1C(=O)CC(=O)N[C@@H]1CCC[C@H]1O)C(=O)Nc1ccccc12` [Example 172], the IC50 was greater than 1000 nM. `Cc1ccc(NC(=O)C(=O)N2C[C@]3(C[C@H]2C#N)C(=O)Nc2ccccc23)nc1` [Example 163] gave an IC50 greater than 1000 nM. With `C[C@]1(O)CC[C@@H](NC(=O)C(=O)N2C[C@]3(C[C@H]2C#N)C(=O)Nc2ccccc23)CC1` [Example 178] the IC50 was greater than 1000 nM. `N#C[C@@H]1C[C@@]2(CN1C(=O)NCc1cc3ccccc3[nH]1)C(=O)Nc1ccccc12` [Example 130] gave an IC50 greater than 1000 nM. `CC(C)NC(=O)[C@@H](Cc1ccccc1)C(=O)N1C[C@]2(C[C@H]1C#N)C(=O)Nc1ccccc12` [Example 114] showed an IC50 of 100 to 1000 nM. Work on `N#C[C@@H]1C[C@@]2(CN1C(=O)C(=O)NCCc1cc(F)cc(F)c1F)C(=O)Nc1ccccc12` [Example 187] yielded an IC50 greater than 1000 nM. `CC(C)S(=O)(=O)N1C[C@]2(C[C@H]1C#N)C(=O)Nc1ccccc12` [Example 122] gave an IC50 greater than 1000 nM. In the case of `N#C[C@@H]1C[C@@]2(CN1C(=O)OCc1ccccc1)C(=O)Nc1ccccc12` [Example 72], the IC50 is reported as 100 to 1000 nM. For `CC(C)(C(=O)NC1CCCCC1)C(=O)N1C[C@]2(C[C@H]1C#N)C(=O)Nc1ccccc12` [Example 74], the IC50 was greater than 1000 nM. With `N#C[C@@H]1C[C@@]2(CN1C(=O)OC1CCCCC1)C(=O)Nc1ccccc12` [Example 77] the IC50 was greater than 1000 nM. For `CC(C)CN1C[C@]2(C[C@H]1C#N)C(=O)Nc1ccccc12` [Example 64], the IC50 was greater than 1000 nM. Compound `N#C[C@@H]1C[C@@]2(CN1C(=O)C(=O)NC1CCCCC1)C(=O)Nc1ccccc12` [Example 79] has an IC50 of 100 to 1000 nM. Work on `Cc1cccc(C)c1NC(CC(=O)N(C)[C@@H](CC(C)C)C(=O)N1C[C@]2(C[C@H]1C#N)C(=O)Nc1ccccc12)C(F)(F)F` (stereo partly drawn) [Example 198] yielded an IC50 of less than 100 nM. `CC(C)OC(=O)N1C[C@]2(C[C@H]1C#N)C(=O)Nc1ccccc12` [Example 68] gave an IC50 greater than 1000 nM. For `N#C[C@@H]1C[C@@]2(CN1C(=O)[C@@H](Cc1ccccc1)C(=O)NC1CCCCC1)C(=O)Nc1ccccc12` [Example 119], the IC50 was greater than 1000 nM. `N#C[C@@H]1C[C@@]2(CN1C(=O)C(=O)N[C@H]1CC[C@H](C(F)(F)F)CC1)C(=O)Nc1ccccc12` [Example 149] gave an IC50 greater than 1000 nM. Compound `N#C[C@@H]1C[C@@]2(CN1C(=O)C(Cc1ccccc1)C(=O)C1CCCCC1)C(=O)Nc1ccccc12` (stereo partly drawn) [Example 93] has an IC50 greater than 1000 nM. With `N#C[C@@H]1C[C@@]2(CN1C(=O)C(=O)NCC13CC4CC(CC(C4)C1)C3)C(=O)Nc1ccccc12` [Example 158] the IC50 was less than 100 nM. With `CC(=O)N[C@H]1CC[C@@H](NC(=O)C(=O)N2C[C@]3(C[C@H]2C#N)C(=O)Nc2ccccc23)CC1` [Example 169] the IC50 was greater than 1000 nM. For `CC1(C)CCC(NC(=O)C(=O)N2C[C@]3(C[C@H]2C#N)C(=O)Nc2ccccc23)CC1` [Example 143], the IC50 was greater than 1000 nM. `N#C[C@@H]1C[C@@]2(CN1C(=O)CC(=O)N[C@@H]1CCC[C@@H]1O)C(=O)Nc1ccccc12` [Example 170] was tested, and the IC50 was greater than 1000 nM. Work on `N#C[C@@H]1C[C@@]2(CN1C(=O)NCCc1cc3ccccc3[nH]1)C(=O)Nc1ccccc12` [Example 131] yielded an IC50 greater than 1000 nM. Compound `N#C[C@@H]1C[C@@]2(CN1C(=O)c1cc3ccccc3[nH]1)C(=O)Nc1ccccc12` [Example 54] has an IC50 greater than 1000 nM. `N#C[C@@H]1C[C@@]2(CN1C(=O)C(=O)N[C@H]1CC[C@@H](NC(=O)c3ccccc3)CC1)C(=O)Nc1ccccc12` [Example 151] was tested, and the IC50 was greater than 1000 nM. Compound `N#C[C@@H]1C[C@@]2(CN1C(=O)C(=O)Nc1ccccc1)C(=O)Nc1ccccc12` [Example 73] has an IC50 greater than 1000 nM. `N#C[C@@H]1C[C@@]2(CN1C(=O)OC1CCCC1)C(=O)Nc1ccccc12` [Example 70] gave an IC50 greater than 1000 nM. `CC(C)(C(=O)Nc1ccccc1)C(=O)N1C[C@]2(C[C@H]1C#N)C(=O)Nc1ccccc12` [Example 84] gave an IC50 greater than 1000 nM. Compound `N#C[C@@H]1C[C@@]2(CN1S(=O)(=O)Nc1ccc(F)cc1)C(=O)Nc1ccccc12` [Example 62] has an IC50 greater than 1000 nM. For `CC1(NC(=O)C(=O)N2C[C@]3(C[C@H]2C#N)C(=O)Nc2ccccc23)CCCC1` [Example 179], the IC50 was 100 to 1000 nM. In the case of `N#C[C@@H]1C[C@@]2(CN1NC(=O)C1CCCCC1)C(=O)Nc1ccccc12` [Example 141], the IC50 is reported as greater than 1000 nM. For `N#C[C@@H]1C[C@@]2(CN1C(=O)CC(=O)N[C@@H]1CC[C@H](O)C1)C(=O)Nc1ccccc12` [Example 183], the IC50 was greater than 1000 nM. For `N#C[C@@H]1C[C@@]2(CN1C(=O)C(=O)NCc1ccccc1)C(=O)Nc1ccccc12` [Example 80], the IC50 was 100 to 1000 nM. In the case of `CC(C)NC(=O)C(=O)N1C[C@]2(C[C@H]1C#N)C(=O)Nc1ccccc12` [Example 89], the IC50 is reported as greater than 1000 nM. `N#C[C@@H]1C[C@@]2(CN1S(=O)(=O)c1ccccc1)C(=O)Nc1ccccc12` [Example 55] was tested, and the IC50 was greater than 1000 nM. Compound `CC(C)OC(=O)C(=O)N1C[C@]2(C[C@H]1C#N)C(=O)Nc1ccccc12` [Example 124] has an IC50 greater than 1000 nM. `CCNC(=O)C(=O)N1C[C@]2(C[C@H]1C#N)C(=O)Nc1ccccc12` [Example 88] gave an IC50 greater than 1000 nM. In the case of `CC(C)C(=O)NN1C[C@]2(C[C@H]1C#N)C(=O)Nc1ccccc12` [Example 139], the IC50 is reported as greater than 1000 nM. `N#C[C@@H]1C[C@@]2(CN1C(=O)C(=O)OC1CCCC1)C(=O)Nc1ccccc12` [Example 112] was tested, and the IC50 was greater than 1000 nM. In the case of `N#C[C@@H]1C[C@@]2(CN1C(=O)[C@@H](Cc1ccccc1)C(=O)c1ccccc1)C(=O)Nc1ccccc12` [Example 95], the IC50 is reported as greater than 1000 nM. Compound `CC(C)(C(=O)C1CCCCC1)C(=O)N1C[C@]2(C[C@H]1C#N)C(=O)Nc1ccccc12` [Example 101] has an IC50 greater than 1000 nM. Work on `CC(C)CN1C[C@]2(C[C@@H]1C#N)C(=O)Nc1ccccc12` [Example 65] yielded an IC50 greater than 1000 nM. With `N#C[C@@H]1C[C@@]2(CN1S(=O)(=O)Nc1ccccc1)C(=O)Nc1ccccc12` [Example 85] the IC50 was greater than 1000 nM. `N#C[C@@H]1C[C@@]2(CN1C(=O)C(Cc1ccccc1)C(=O)C1CC1)C(=O)Nc1ccccc12` (stereo partly drawn) [Example 92] gave an IC50 of 100 to 1000 nM. `N#C[C@@H]1C[C@@]2(CN1C(=N)C1CC1)C(=O)Nc1ccccc12` [Example 148] showed an IC50 greater than 1000 nM. `CC(C)(C)OC(=O)N[C@@H]1CCC[C@@H]1NC(=O)C(=O)N1C[C@]2(C[C@H]1C#N)C(=O)Nc1ccccc12` [Example 147] was tested, and the IC50 was 100 to 1000 nM. With `N#C[C@@H]1C[C@@]2(CN1C(=O)C(=O)Nc1cccc(C(F)(F)F)n1)C(=O)Nc1ccccc12` [Example 166] the IC50 was greater than 1000 nM. Work on `N#C[C@@H]1C[C@@]2(CN1C(=O)C(=O)NCC1CCCCC1)C(=O)Nc1ccccc12` [Example 154] yielded an IC50 of 100 to 1000 nM. `N#C[C@@H]1C[C@@]2(CN1C(=O)C(=O)Nc1ccc3cccnc3c1)C(=O)Nc1ccccc12` [Example 91] showed an IC50 greater than 1000 nM. Work on `N#C[C@@H]1C[C@@]2(CN1S(=O)(=O)NCc1nccs1)C(=O)Nc1ccccc12` [Example 63] yielded an IC50 greater than 1000 nM. `N#C[C@@H]1C[C@@]2(CN1C(=O)C(=O)OCc1nccs1)C(=O)Nc1ccccc12` [Example 127] showed an IC50 greater than 1000 nM. With `CC(C)(C)OC(=O)N[C@H]1CC[C@@H](NC(=O)C(=O)N2C[C@]3(C[C@H]2C#N)C(=O)Nc2ccccc23)C1` [Example 152] the IC50 was greater than 1000 nM. With `CC(C)(C(=O)c1ccccc1)C(=O)N1C[C@]2(C[C@H]1C#N)C(=O)Nc1ccccc12` [Example 111] the IC50 was greater than 1000 nM. `N#C[C@@H]1C[C@@]2(CN1C(=O)CC(=O)N[C@H]1CC[C@H](O)C1)C(=O)Nc1ccccc12` [Example 180] showed an IC50 greater than 1000 nM. `N#C[C@@H]1C[C@@]2(CN1C(=O)C(=O)Nc1ccc(C(F)(F)F)nc1)C(=O)Nc1ccccc12` [Example 164] gave an IC50 greater than 1000 nM. With `CC(C)(C(=O)NC1CC1)C(=O)N1C[C@]2(C[C@H]1C#N)C(=O)Nc1ccccc12` [Example 83] the IC50 was greater than 1000 nM. For `N#C[C@@H]1C[C@@]2(CN1C(=O)C(=O)N[C@H]1CC[C@@H](NC(=O)OCc3ccccc3)CC1)C(=O)Nc1ccccc12` [Example 145], the IC50 was greater than 1000 nM. Work on `N#C[C@@H]1C[C@@]2(CN1C(=O)[C@H](Cc1ccccc1)C(=O)Nc1ccccc1)C(=O)Nc1ccccc12` [Example 120] yielded an IC50 of 100 to 1000 nM. For `CC(C)(C)OC(=O)N[C@@H]1CC[C@H](NC(=O)C(=O)N2C[C@]3(C[C@H]2C#N)C(=O)Nc2ccccc23)C1` [Example 174], the IC50 was greater than 1000 nM. For `N#C[C@@H]1C[C@@]2(CN1C(=O)C(=O)NC1(c3ccccc3)CCCC1)C(=O)Nc1ccccc12` [Example 175], the IC50 was less than 100 nM. Work on `CC(C)(C)OC(=O)N[C@H]1CCC[C@@H]1NC(=O)C(=O)N1C[C@]2(C[C@H]1C#N)C(=O)Nc1ccccc12` [Example 153] yielded an IC50 greater than 1000 nM.
